Reference: publication PMC3429506, “Screening for Novel LRRK2 Inhibitors Using a High-Throughput TR-FRET Cellular Assay for LRRK2 Ser935 Phosphorylation” (PLoS ONE, 2012)
Where two headings read alike, the source gives them in different places.

How the values were obtained:
LRRK2-GFP = assay: Western blot analysis of LRRK2-GFP Ser935 phosphorylation in BacMam transduced SH-SY5Y cells; format: cell-based, human; conditions: LRRK2-IN-1 3 µM 90 min, wild-type, G2019S, R1441C, Figure 3A
Experimental: Immunoblot analysis: BacMam LRRK2-GFP transduced U-2 OS or SH-SY5Y cells (10^7 cells) were left untreated or treated with 3 µM LRRK2-IN-I for 90 min. For lysate preparation, the cells were washed once with ice-cold PBS and lysed by addition of ice-cold lysis buffer (20 mM Tris-HCl, pH 7.4, 1% NP-40, 5 mM EDTA, 5 mM NaF, 150 mM NaCl, and 1∶100 of protease and phosphatase inhibitor cocktails). The lysate was cleared of debris by centrifugation. Equal amount of total protein was loaded onto each lane for SDS-PAGE (3–8% Tris Acetate). The proteins were transferred onto nitrocellulose membrane using the iBLOT® dry blotting system (Life Technologies) according to manufacturer’s protocol. The membranes were blocked and incubated with a primary antibody against LRRK2 (Cell Signaling Technologies), followed by incubation with alkaline phosphatase-conjugated secondary antibody (WesternBreeze® chromogenic Kit, Life Technologies). The blot was developed by using the chromogenic BCIP/NBT substrate (WesternBreeze® chromogenic Kit, Life Technologies). […] Two days post induction, cells were treated for 90 minutes in the presence of 20 µM of compound or DMSO vehicle control. […]

LRRK2 G2019S = LRRK2 G2019S (Homo sapiens, UniProt Q5S007, G2019S); assay: TR-FRET cellular assay for LRRK2 Ser935 phosphorylation, SH-SY5Y cells, BacMam LRRK2-GFP G2019S (incl. Tocriscreen Mini library screen and follow-up); format: cell-based; set-up: This high-throughput assay utilizes cells expressing full-length human LRRK2 with a C-terminal GFP tag (LRRK2-GFP); host or cells: SH-SY5Y cells transduced with BacMam
Sequence of LRRK2 G2019S (Q5S007 whole entry G2019S): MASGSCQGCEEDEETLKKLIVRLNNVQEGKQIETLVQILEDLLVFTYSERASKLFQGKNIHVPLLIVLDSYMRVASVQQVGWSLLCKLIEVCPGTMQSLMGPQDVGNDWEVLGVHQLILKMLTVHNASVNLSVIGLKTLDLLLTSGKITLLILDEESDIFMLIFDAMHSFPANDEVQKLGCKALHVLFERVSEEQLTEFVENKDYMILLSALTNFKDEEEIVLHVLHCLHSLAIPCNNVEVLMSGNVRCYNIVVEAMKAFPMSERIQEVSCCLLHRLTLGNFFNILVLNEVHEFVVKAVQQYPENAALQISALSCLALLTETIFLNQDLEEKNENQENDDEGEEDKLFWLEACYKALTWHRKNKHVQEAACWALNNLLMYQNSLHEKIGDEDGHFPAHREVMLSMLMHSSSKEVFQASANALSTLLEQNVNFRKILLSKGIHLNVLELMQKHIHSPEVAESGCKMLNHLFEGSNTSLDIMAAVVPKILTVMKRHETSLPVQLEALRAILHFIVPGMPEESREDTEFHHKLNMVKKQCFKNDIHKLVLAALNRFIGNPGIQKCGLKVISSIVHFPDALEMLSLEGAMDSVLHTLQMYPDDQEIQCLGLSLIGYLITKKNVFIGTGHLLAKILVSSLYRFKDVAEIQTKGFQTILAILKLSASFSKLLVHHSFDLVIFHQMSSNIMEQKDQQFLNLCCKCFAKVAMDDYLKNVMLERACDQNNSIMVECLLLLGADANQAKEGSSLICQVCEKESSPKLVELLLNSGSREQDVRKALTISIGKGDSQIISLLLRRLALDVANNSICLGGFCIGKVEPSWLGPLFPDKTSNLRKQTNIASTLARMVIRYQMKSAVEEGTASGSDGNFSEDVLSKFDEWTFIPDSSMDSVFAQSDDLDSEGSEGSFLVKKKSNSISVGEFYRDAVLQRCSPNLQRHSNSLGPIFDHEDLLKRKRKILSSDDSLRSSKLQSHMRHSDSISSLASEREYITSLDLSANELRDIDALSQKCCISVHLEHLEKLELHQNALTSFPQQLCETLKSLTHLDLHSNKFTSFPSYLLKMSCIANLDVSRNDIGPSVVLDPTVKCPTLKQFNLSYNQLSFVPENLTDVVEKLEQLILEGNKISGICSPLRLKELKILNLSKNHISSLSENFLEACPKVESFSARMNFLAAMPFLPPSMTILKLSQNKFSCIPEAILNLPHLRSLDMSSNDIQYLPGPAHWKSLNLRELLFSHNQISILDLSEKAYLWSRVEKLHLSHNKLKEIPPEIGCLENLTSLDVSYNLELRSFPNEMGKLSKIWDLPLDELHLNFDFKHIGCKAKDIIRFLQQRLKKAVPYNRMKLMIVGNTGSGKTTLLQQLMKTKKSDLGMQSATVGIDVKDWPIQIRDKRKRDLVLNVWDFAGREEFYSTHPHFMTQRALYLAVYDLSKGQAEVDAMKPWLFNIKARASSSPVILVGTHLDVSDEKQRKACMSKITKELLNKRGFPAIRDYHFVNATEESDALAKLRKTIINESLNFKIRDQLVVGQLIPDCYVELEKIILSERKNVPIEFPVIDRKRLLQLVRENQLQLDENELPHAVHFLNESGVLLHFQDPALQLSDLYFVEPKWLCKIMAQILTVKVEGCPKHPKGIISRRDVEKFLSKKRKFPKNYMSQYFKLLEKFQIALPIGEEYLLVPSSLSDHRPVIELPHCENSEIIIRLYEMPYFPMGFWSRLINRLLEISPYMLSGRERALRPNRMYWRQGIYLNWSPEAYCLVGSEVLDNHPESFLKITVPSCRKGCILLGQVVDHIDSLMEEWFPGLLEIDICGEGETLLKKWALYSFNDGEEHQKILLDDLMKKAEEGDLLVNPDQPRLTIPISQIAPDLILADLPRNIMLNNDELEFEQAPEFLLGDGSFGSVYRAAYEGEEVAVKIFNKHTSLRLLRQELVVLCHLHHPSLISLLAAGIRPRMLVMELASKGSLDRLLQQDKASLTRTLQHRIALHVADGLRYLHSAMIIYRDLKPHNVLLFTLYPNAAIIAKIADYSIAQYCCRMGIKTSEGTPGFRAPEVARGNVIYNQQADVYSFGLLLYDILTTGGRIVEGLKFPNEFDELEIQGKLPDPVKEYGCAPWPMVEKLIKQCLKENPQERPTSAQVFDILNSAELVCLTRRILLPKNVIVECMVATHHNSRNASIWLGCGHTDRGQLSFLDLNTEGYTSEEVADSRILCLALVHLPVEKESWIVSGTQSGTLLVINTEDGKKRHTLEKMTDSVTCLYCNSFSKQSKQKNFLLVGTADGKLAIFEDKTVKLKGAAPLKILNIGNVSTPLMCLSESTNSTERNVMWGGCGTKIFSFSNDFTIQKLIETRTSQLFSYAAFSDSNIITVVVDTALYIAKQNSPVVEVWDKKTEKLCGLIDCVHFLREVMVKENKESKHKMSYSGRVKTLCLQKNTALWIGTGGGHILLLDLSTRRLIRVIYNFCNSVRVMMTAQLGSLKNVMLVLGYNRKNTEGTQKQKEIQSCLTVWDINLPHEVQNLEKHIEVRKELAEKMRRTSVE

For `COc1cc(C(=O)N2CCC(N3CCN(C)CC3)CC2)ccc1Nc1ncc2c(n1)N(C)c1ccccc1C(=O)N2C` [LRRK2-IN-1], the “Ser935 phosphorylation by Western blot” value (LRRK2-GFP) was “significantly reduced”, the IC50 (LRRK2 G2019S; SH-SY5Y, 25% BacMam G2019S, 90 min, Figure 3C, read-out: IC50, inhibition of TR-FRET signal (Ser935 phosphorylation)) was 40 nM and the IC50 (LRRK2 G2019S; SH-SY5Y, G2019S, +/- SD, three independent experiments, * = partial inhibition, read-out: IC50, TR-FRET cell-based assay for Ser935 phosphorylation of LRRK2) was 60 nM. The inhibition at 10 µM (LRRK2 G2019S; SH-SY5Y, LRRK2-IN-1 positive control used at 10 µM, SH-SY5Y G2019S, read-out: %Inhibition Initial screen (positive control)) was 100%, the IC50 (LRRK2 G2019S; cryopreserved pretransduced SH-SY5Y cells, 25% BacMam G2019S, 90 min, Figure S3, read-out: IC50 using cryopreserved cells) was about 40 nM and the IC50 (LRRK2 G2019S; dose-response follow-up, SH-SY5Y G2019S, three independent experiments, read-out: Cellular TR-FRET Assay IC50 +/-SD) was 70 nM.
